Results from patent publication US12649751B2 (Arcus Biosciences, Inc., priority 2022, dated 2026).
Read-outs that look alike come from different tables or passages of the source.

What was measured:
HPK1 = HPK1 (Homo sapiens, UniProt Q92918); experiment: HPK1 Biochemical Assay (ADP-Glo luminescence; low ATP 10 μM or high ATP 200 μM)
[1] = test system: p-SLP-76 (Ser376) in Jurkat cells; experiment: pSLP76 Cellular Assay (AlphaLISA SureFire Ultra p-SLP-76 (Ser376), anti-CD3 activated Jurkat cells); format: cell-based; details: read-out: Cellular Potency
Procedure: pSLP76 cellular assay was performed using Jurkat cells and the AlphaLISA SureFire Ultra p-SLP-76 (Ser376) Assay Kit (PerkinElmer). Dose-response assays were performed in Greiner® Low Volume 384-well assay plates containing 200 nL of 22 serial 2-fold compound dilutions using Bravo and Echo. Jurkat cells were grown in RPMI-1640 supplemented with 10% FBS and PSG. The day prior to the assay, the cells were collected, and serum starved overnight in Opti-MEM. The day of the assay, the cells were collected and resuspended in HBSS. 100,000 cells/well were added to the compound plates and after a short spin, the plates were incubated at 37° C. for 1 h. The cells were activated by adding 10 μL of 0.025 mg/ml anti-CD3. Plates were then incubated at 37° C. for 45 min. Stimulation was terminated by adding […], followed by a brief centrifugation and 60 min of shaking at 300 rpm. Cell lysates (10 μL) were transferred to 384-well White Opti-plates and the samples were processed according to the manufacturer's directions. The fluorescence signal from pSLP76 was measured at 570 nm using Envision plate reader. IC50 values were determined by fitting the data to a standard 4-parameter logistic equation. The results are summarized in the Cellular Potency columns in Tables 4 and 5 below (Cellular Potency).

[2] = 2 nM HPK1, 10 μM ATP, read-out: Biochemical Potency (low ATP)
[3] = Homo sapiens, Jurkat cells, anti-CD3 stimulation, pSLP76
[4] = HPK1 ADP-Glo assay, high ATP (200 μM ATP, 5 nM HPK1), read-out: Biochemical Potency (high ATP)
[5] = Homo sapiens, pSLP76 (Ser376) AlphaLISA, anti-CD3 activated Jurkat cells
[6] = HPK1 ADP-Glo assay, low ATP (10 μM ATP, 2 nM HPK1), read-out: Biochemical Potency (low ATP)

Chain of HPK1 (Q92918 whole entry, species assumed): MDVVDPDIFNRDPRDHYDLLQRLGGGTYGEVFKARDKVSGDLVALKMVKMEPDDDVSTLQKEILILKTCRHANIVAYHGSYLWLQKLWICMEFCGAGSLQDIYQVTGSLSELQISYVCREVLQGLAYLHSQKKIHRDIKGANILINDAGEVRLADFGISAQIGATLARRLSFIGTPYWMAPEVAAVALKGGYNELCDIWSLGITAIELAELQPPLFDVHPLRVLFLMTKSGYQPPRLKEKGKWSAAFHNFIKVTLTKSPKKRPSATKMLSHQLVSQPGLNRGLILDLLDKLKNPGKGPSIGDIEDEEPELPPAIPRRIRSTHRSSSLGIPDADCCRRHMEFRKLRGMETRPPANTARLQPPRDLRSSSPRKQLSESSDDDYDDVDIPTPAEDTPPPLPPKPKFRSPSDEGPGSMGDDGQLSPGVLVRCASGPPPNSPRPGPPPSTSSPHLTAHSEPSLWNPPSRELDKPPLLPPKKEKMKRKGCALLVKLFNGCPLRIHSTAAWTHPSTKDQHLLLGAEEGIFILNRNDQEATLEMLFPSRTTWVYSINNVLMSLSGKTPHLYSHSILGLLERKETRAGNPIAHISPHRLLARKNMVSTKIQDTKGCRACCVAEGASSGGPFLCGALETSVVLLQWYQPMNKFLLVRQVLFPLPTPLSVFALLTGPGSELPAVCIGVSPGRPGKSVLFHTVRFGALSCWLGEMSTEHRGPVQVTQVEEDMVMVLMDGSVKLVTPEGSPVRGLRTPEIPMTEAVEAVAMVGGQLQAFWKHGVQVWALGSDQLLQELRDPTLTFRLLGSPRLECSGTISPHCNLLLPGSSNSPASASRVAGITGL

| IC50 (HPK1; [2]) | IC50 [1, 3] | IC50 (HPK1; [4]) | IC50 [1, 5] | also measured | Compound |
| --- | --- | --- | --- | --- | --- |
| < 100 nM | 1000 to 5000 nM | – | – | IC50 (HPK1; 5 nM HPK1, 200 μM ATP, read-out: Biochemical Potency (high ATP)): < 100 nM | CN1C[C@@H]2C[C@H]1CN2c1nccc(Nc2cc3nc(-c4cccc(NS(C)(=O)=O)c4)sc3cn2)n1 [Example 286, N-{3-[6-({2-[(1S,4S)-5-methyl-2,5-diazabicyclo[2.2.1]heptan-2-yl]pyrimidin-4-yl}amino)-[1,3]thiazolo[5,4-c]pyridin-2-yl]phenyl}methanesulfonamide] |
| < 100 nM | < 100 nM | – | – | – | Cc1ccnn1-c1nc2cc(Nc3ccc(N4CCOCC4)c(CN4CCCC4)n3)ncc2s1 [Example 194, N-[2-(5-Methyl-1H-pyrazol-1-yl)-[1,3]thiazolo[5,4-c]pyridin-6-yl]-5-(morpholin-4-yl)-6-[(pyrrolidin-1-yl)methyl]pyridin-2-amine] |
| < 100 nM | 100 to 1000 nM | – | – | – | Cc1cccnc1-c1nc2cc(Nc3cc(F)cc(N4C[C@@H]5C[C@H]4CN5C)n3)ncc2s1 [Example 119, 4-Fluoro-6-[(1S,4S)-5-methyl-2,5-diazabicyclo[2.2.1]heptan-2-yl]-N-[2-(3-methylpyridin-2-yl)-[1,3]thiazolo[5,4-c]pyridin-6-yl]pyridin-2-amine] |
| – | – | < 100 nM | < 100 nM | – | Cc1cc(Nc2cc3nc(-c4cccc(C(=O)N(C)C)c4)sc3cn2)nc(N2C[C@@H]3C[C@H]2CN3Cc2ccccc2)n1 [Example 496] |
| – | – | < 100 nM | 100 to 1000 nM | – | CCC(O)(CC)c1cc(-c2nc3cc(Nc4cc(C)nc(N5C[C@@H]6C[C@H]5CN6C)n4)ncc3s2)ccn1 [Example 387] |
| < 100 nM | 100 to 1000 nM | – | – | – | CC(C)c1ccc(Nc2cc3nc(-c4cnn(C)c4)sc3cn2)nc1CN1CCCC1 [Example 227, N-[2-(1-Methyl-1H-pyrazol-4-yl)-[1,3]thiazolo[5,4-c]pyridin-6-yl]-5-(propan-2-yl)-6-[(pyrrolidin-1-yl)methyl]pyridin-2-amine] |
| < 100 nM | 100 to 1000 nM | – | – | – | Cc1cc(Nc2cc3nc(-c4c(C)cccc4F)sc3cn2)nc(O[C@H]2CCNC2)c1 [Example 178, N-[2-(2-Fluoro-6-methylphenyl)-[1,3]thiazolo[5,4-c]pyridin-6-yl]-4-methyl-6-[(3S)-pyrrolidin-3-yloxy]pyridin-2-amine] |
| – | – | < 100 nM | < 100 nM | – | CCN1C[C@@H]2C[C@H]1CN2c1nc(C)cc(Nc2cc3nc(-c4cccc(C(=O)N5CCC[C@@H]5COC)c4)sc3cn2)n1 [Example 535] |
| – | – | < 100 nM | 100 to 1000 nM | – | Cc1cc(Nc2cc3nc(-c4ccnc(N5C[C@H]6COC[C@H]6C5)c4)sc3cn2)nc(N2C[C@@H]3C[C@H]2CN3C)n1 [Example 457] |
| < 100 nM | > 5000 nM | – | – | – | CCNC(C)c1nc(Nc2cc3nc(-c4c(F)cccc4F)sc3cn2)ccc1N1CCOCC1 (centres unmarked) [Example 278, N-[2-(2,6-Difluorophenyl)-[1,3]thiazolo[5,4-c]pyridin-6-yl]-6-[1-(ethylamino)ethyl]-5-(morpholin-4-yl)pyridin-2-amine] |
| – | – | – | – | IC50 (HPK1; [6]): < 100 nM; IC50 ([1]; pSLP76 (Ser376) AlphaLISA, anti-CD3 activated Jurkat cells): 100 to 1000 nM | CN1C[C@@H]2C[C@H]1CN2c1nccc(Nc2cc3nc(-c4ccnc(N5CC[C@@H](O)C5)c4)sc3cn2)n1 [Example 464] |
| – | – | < 100 nM | 100 to 1000 nM | – | Cc1cc(Nc2cc3nc(-c4cccc(C(=O)N(C)C)c4)sc3cn2)nc(N2C[C@@H]3C[C@H]2CN3CC2CC2)n1 [Example 382] |
| – | – | < 100 nM | 100 to 1000 nM | – | Cc1cc(Nc2cc3nc(-c4ccnc(N5CCS(=O)(=O)CC5)c4)sc3cn2)nc(N2C[C@@H]3C[C@H]2CN3C)n1 [Example 478] |
| < 100 nM | 1000 to 5000 nM | – | – | – | Cc1cccnc1-c1nc2cc(Nc3ccc(C)c(N4CCC[C@H](N)C4)n3)ncc2s1 [Example 71, 6-[(3S)-3-Aminopiperidin-1-yl]-5-methyl-N-[2-(3-methylpyridin-2-yl)-[1,3]thiazolo[5,4-c]pyridin-6-yl]pyridin-2-amine] |
| < 100 nM | > 5000 nM | – | – | – | Cc1cccnc1-c1nc2cc(Nc3ccc(C)c(N4C[C@@H]5CCN(C)[C@@H]5C4)n3)ncc2s1 [Example 112, 6-[(3aS,6aS)-1-Methyl-octahydropyrrolo[3,4-b]pyrrol-5-yl]-5-methyl-N-[2-(3-methylpyridin-2-yl)-[1,3]thiazolo[5,4-c]pyridin-6-yl]pyridin-2-amine] |
| – | – | < 100 nM | 100 to 1000 nM | – | CC(=O)N(C)c1cccc(-c2nc3cc(Nc4cc(C)nc(N5C[C@@H]6C[C@H]5CN6C)n4)ncc3s2)c1 [Example 396] |

| IC50 (HPK1; [2]) | IC50 [1, 3] | IC50 (HPK1; [4]) | IC50 [1, 5] | also measured | Compound |
| --- | --- | --- | --- | --- | --- |
| – | – | < 100 nM | 100 to 1000 nM | – | Cc1cc(-c2nc3cc(Nc4cc(C)nc(N5C[C@@H]6C[C@H]5CN6CCO)n4)ncc3s2)cc(C2CC2)n1 [Example 537] |
| – | – | < 100 nM | 100 to 1000 nM | – | CCN1C[C@@H]2C[C@H]1CN2c1nc(C)cc(Nc2cc3nc(-c4cncc(N5C(=O)OC[C@H]5C)c4)sc3cn2)n1 [Example 295, (4R)-3-{5-[6-({2-[(1S,4S)-5-ethyl-2,5-diazabicyclo[2.2.1]heptan-2-yl]-6-methylpyrimidin-4-yl}amino)-[1,3]thiazolo[5,4-c]pyridin-2-yl]pyridin-3-yl}-4-methyl-1,3-oxazolidin-2-one] |
| – | – | – | 1000 to 5000 nM | IC50 (HPK1; [6]): < 100 nM | Cc1cccnc1-c1nc2cc(Nc3ccc4c(n3)[C@@](C)(N)CC4)ncc2s1 [Example 576] |
| – | – | < 100 nM | 100 to 1000 nM | – | CN1C[C@@H]2C[C@H]1CN2c1cc(Cl)cc(Nc2cc3nc(-c4ccnc(C(C)(C)O)c4)sc3cn2)n1 [Example 333] |
| – | – | < 100 nM | 1000 to 5000 nM | IC50 (HPK1; [6]): < 100 nM | CN1C[C@@H]2C[C@H]1CN2c1nccc(Nc2cc3nc(-c4cccc(NS(C)(=O)=O)c4)sc3cn2)n1 [Example 413] |
| – | – | < 100 nM | < 100 nM | – | Cc1cccnc1-c1nc2cc(Nc3cc(C4CCC(O)CC4)nc(N4C[C@@H]5C[C@H]4CN5)n3)ncc2s1 (stereo partly drawn) [Example 302, 4-{2-[(1S,4S)-2,5-diazabicyclo[2.2.1]heptan-2-yl]-6-{[2-(3-methylpyridin-2-yl)-[1,3]thiazolo[5,4-c]pyridin-6-yl]amino}pyrimidin-4-yl}cyclohexan-1-ol] |
| – | – | < 100 nM | 100 to 1000 nM | – | Cc1cc(Nc2cc3nc(-c4cnn(C(C)(C)C#N)c4)sc3cn2)nc(N2C[C@@H]3C[C@H]2CN3C)n1 [Example 371] |
| – | – | < 100 nM | < 100 nM | – | CCN1C[C@@H]2C[C@H]1CN2c1nc(C)cc(Nc2cc3nc(-c4cccc(C(=O)N[C@@H](C)C5CC5)c4)sc3cn2)n1 [Example 525] |
| – | – | < 100 nM | 100 to 1000 nM | IC50 (HPK1; [6]): < 100 nM | Cc1cccnc1-c1nc2cc(Nc3nc(N4C[C@@H]5C[C@H]4CN5)ccc3F)ncc2s1 [Example 320] |
| < 100 nM | 100 to 1000 nM | – | – | – | CS(=O)(=O)c1cccc(-c2nc3cc(Nc4cccc(N5C[C@@H]6C[C@H]5CN6)n4)ncc3s2)c1 [Example 141, 6-[(1S,4S)-2,5-Diazabicyclo[2.2.1]heptan-2-yl]-N-[2-(3-methanesulfonylphenyl)-[1,3]thiazolo[5,4-c]pyridin-6-yl]pyridin-2-amine] |
| < 100 nM | 1000 to 5000 nM | – | – | – | Cc1cccnc1-c1nc2cc(Nc3nc(N4C[C@@H]5C[C@H]4CN5C)ccc3F)ncc2s1 [Example 109, 3-Fluoro-6-[(1S,4S)-5-methyl-2,5-diazabicyclo[2.2.1]heptan-2-yl]-N-[2-(3-methylpyridin-2-yl)-[1,3]thiazolo[5,4-c]pyridin-6-yl]pyridin-2-amine] |
| < 100 nM | 1000 to 5000 nM | – | – | – | CN(C)Cc1nc(Nc2cc3nc(-c4c(F)cccc4F)sc3cn2)ccc1N1CCC(O)CC1 [Example 12, 1-(6-{[2-(2,6-Difluorophenyl)-[1,3]thiazolo[5,4-c]pyridin-6-yl]amino}-2-[(dimethylamino)methyl]pyridin-3-yl)piperidin-4-ol] |
| < 100 nM | 100 to 1000 nM | – | – | – | Cc1ccncc1-c1nc2cc(Nc3ccc(N4CCOCC4)c(CN(C)C)n3)ncc2s1 [Example 3, 6-[(Dimethylamino)methyl]-N-[2-(4-methylpyridin-3-yl)-[1,3]thiazolo[5,4-c]pyridin-6-yl]-5-(morpholin-4-yl)pyridin-2-amine] |
| 1000 to 5000 nM | > 5000 nM | – | – | – | CN(Cc1nc(Nc2cc3nc(-c4c(F)cccc4F)sc3cn2)ccc1N1CCOCC1)S(C)(=O)=O [Example 31, N-[(6-{[2-(2,6-Difluorophenyl)-[1,3]thiazolo[5,4-c]pyridin-6-yl]amino}-3-(morpholin-4-yl)pyridin-2-yl)methyl]-N-methylmethanesulfonamide] |
| – | – | < 100 nM | 100 to 1000 nM | – | Cc1cccnc1-c1nc2cc(Nc3cc(C(C)C)nc(N4C[C@@H]5C[C@H]4CN5)n3)ncc2s1 [Example 435] |
